Experimental findings from ChEMBL document CHEMBL1649185, “Antibacterial activity of ultrashort cationic lipo-beta-peptides” (2009) are described below.

Converted amounts (≈) assume the structure as drawn. Square brackets hold non-standard residues; d marks the D form. Peptide text beside a SMILES is read from it. * marks the point of attachment. Palmitoyl = CCCCCCCCCCCCCCCC(=O)*; Lauroyl = CCCCCCCCCCCC(=O)* Some results are limits rather than exact numbers.

Holding throughout (format): functional
In experiment [1] the test system is Staphylococcus epidermidis. Put plainly: Antimicrobial activity against Staphylococcus epidermidis ATCC 14990 […].
For experiment [2], the system named is Enterococcus faecalis. As to the kind of experiment: Antimicrobial activity against Enterococcus faecalis ATCC 29212 […].
In experiment [3] the test system is Stenotrophomonas maltophilia. Put plainly: Antimicrobial activity against Stenotrophomonas maltophilia CAN-ICU 62584 […].
Experiment [4] concerns Streptococcus pneumoniae. Put plainly: Antimicrobial activity against Streptococcus pneumoniae ATCC 49619 […].
The subject of experiment [5] is Escherichia coli. As to the kind of experiment: Antimicrobial activity against Escherichia coli CAN-ICU 61714 […].
The subject of experiment [6] is Staphylococcus epidermidis. Put plainly: Antimicrobial activity against methicillin-resistant Staphylococcus epidermidis CAN-ICU 61589 […].
The subject of experiment [7] is Pseudomonas aeruginosa. Put plainly: Antimicrobial activity against Pseudomonas aeruginosa ATCC 27853 […].
The test system of experiment [8] is Staphylococcus aureus. Put plainly: Antimicrobial activity against Staphylococcus aureus ATCC 29213 […].
Experiment [9] concerns Escherichia coli. Put plainly: Antimicrobial activity against Escherichia coli ATCC 25922 by […].
The test system of experiment [10] is Acinetobacter baumannii. As to the kind of experiment: Antimicrobial activity against Acinetobacter baumannii CAN-ICU 63169 by […].
The subject of experiment [11] is Enterococcus faecium. Put plainly: Antimicrobial activity against Enterococcus faecium ATCC 27270 […].
The test system of experiment [12] is Escherichia coli. Put plainly: Antimicrobial activity against Escherichia coli CAN-ICU 63074 […].
Experiment [13] has as its system Klebsiella pneumoniae. Put plainly: Antimicrobial activity against Klebsiella pneumoniae ATCC 13883 […].
In experiment [14] the test system is Staphylococcus aureus. As to the kind of experiment: Antimicrobial activity against methicillin-resistant Staphylococcus aureus ATCC 33592 […].
Experiment [15] relates to Pseudomonas aeruginosa. Put plainly: Antimicrobial activity against Pseudomonas aeruginosa CAN-ICU 62308 […].

Take `CCCCCCCCCCCC(=O)N[C@@H](CCCCN)C(=O)N[C@@H](CC(C)C)C(=O)N[C@@H](CC(C)C)C(=O)N[C@@H](CCCCN)C(=O)O` (Lauroyl-KLLK-OH): the minimal inhibitory concentration (MIC) (as a rule, the smallest concentration in the dilution series that meets the test's criterion for growth inhibition) was 16 µg/mL (≈ 23.4 µM) in experiment [1]; 32 µg/mL (≈ 46.9 µM) in experiment [2]; more than 256 µg/mL in experiment [3]; 128 µg/mL (≈ 187 µM) in experiment [4]; 128 µg/mL (≈ 187 µM) in experiment [5]; 16 µg/mL (≈ 23.4 µM) in experiment [6]. Besides, the MIC is 128 µg/mL (≈ 187 µM) in experiment [7]; 16 µg/mL (≈ 23.4 µM) in experiment [8]; 128 µg/mL (≈ 187 µM) in [9]; more than 64 µg/mL in experiment [10]; 16 µg/mL (≈ 23.4 µM) in experiment [11]; 128 µg/mL (≈ 187 µM) in experiment [12]. Moreover, the MIC worked out at 256 µg/mL (≈ 375 µM) in experiment [13], 16 µg/mL (≈ 23.4 µM) in experiment [14] and 128 µg/mL (≈ 187 µM) in experiment [15].

Consider `CCCCCCCCCCCCCCCC(=O)N[C@@H](CCCCN)C(=O)N[C@@H](C)C(=O)N[C@@H](C)C(=O)N[C@@H](CCCCN)C(=O)O` (Palmitoyl-KAAK-OH), for which the MIC in experiment [1] was found to be 8 µg/mL (≈ 12.2 µM); in [2] it was 16 µg/mL (≈ 24.4 µM); in [3] it was 128 µg/mL (≈ 195 µM); in experiment [4], 128 µg/mL (≈ 195 µM); in experiment [5], 16 µg/mL (≈ 24.4 µM); in [6], 8 µg/mL (≈ 12.2 µM). The MIC in experiment [7] stood at 32 µg/mL (≈ 48.9 µM); in experiment [8] it was 16 µg/mL (≈ 24.4 µM); in experiment [9], 16 µg/mL (≈ 24.4 µM); in [10], 128 µg/mL (≈ 195 µM); in experiment [11], 8 µg/mL (≈ 12.2 µM); in experiment [12], 16 µg/mL (≈ 24.4 µM). The minimal inhibitory concentration (MIC) in experiment [13] worked out at 128 µg/mL (≈ 195 µM); in [14], 16 µg/mL (≈ 24.4 µM); in experiment [15], 64 µg/mL (≈ 97.7 µM).

For `CCCCCCCCCCCCCCCC(=O)N[C@@H](CCCCN)C(=O)NCC(=O)NCC(=O)N[C@@H](CCCCN)C(=O)O`, the MIC in [1] was found to be 4 µg/mL (≈ 6.38 µM); in experiment [2], 8 µg/mL (≈ 12.8 µM); in [3] it was 128 µg/mL (≈ 204 µM); in [4], 128 µg/mL (≈ 204 µM); in [5] it was 16 µg/mL (≈ 25.5 µM); in experiment [6] it was 8 µg/mL (≈ 12.8 µM). The MIC was 64 µg/mL (≈ 102 µM) in experiment [7]; 8 µg/mL (≈ 12.8 µM) in [8]; 16 µg/mL (≈ 25.5 µM) in experiment [9]; 128 µg/mL (≈ 204 µM) in experiment [10]; 16 µg/mL (≈ 25.5 µM) in [11]; 16 µg/mL (≈ 25.5 µM) in experiment [12]. In addition, the values for the MIC in experiment [13], in [14] and in experiment [15] were 64 µg/mL (≈ 102 µM), 16 µg/mL (≈ 25.5 µM) and 64 µg/mL (≈ 102 µM), respectively.

On to `CCCCCCCCCCCCCCCC(=O)N[C@H](CCCN)CC(=O)NCCC(=O)NCCC(=O)N[C@H](CCCN)CC(=O)O`, for which the minimum inhibitory concentration (MIC) is 8 µg/mL (≈ 12.2 µM) in [1]; 32 µg/mL (≈ 48.9 µM) in [2]; more than 128 µg/mL in experiment [3]; more than 64 µg/mL in [4]; 64 µg/mL (≈ 97.7 µM) in experiment [5]; 16 µg/mL (≈ 24.4 µM) in [6]. In addition, the minimal inhibitory concentration (MIC) in [7] is 256 µg/mL (≈ 391 µM); in [8] it was 64 µg/mL (≈ 97.7 µM); in experiment [9] it was 64 µg/mL (≈ 97.7 µM); in [10], 256 µg/mL (≈ 391 µM); in [11] it was 32 µg/mL (≈ 48.9 µM); in experiment [12], 64 µg/mL (≈ 97.7 µM). The figures for the minimal inhibitory concentration (MIC) in experiment [13], in experiment [14] and in [15] were more than 128 µg/mL, 32 µg/mL (≈ 48.9 µM) and 128 µg/mL (≈ 195 µM), respectively.

As to `CCCCCCCCCCCCCCCC(=O)N[C@@H](CCCCN)C(=O)NCC(=O)NCC(=O)N[C@H](CCCCN)C(=O)O`, the MIC stood at 8 µg/mL (≈ 12.8 µM) in [1]; 16 µg/mL (≈ 25.5 µM) in [2]; 64 µg/mL (≈ 102 µM) in [3]; 128 µg/mL (≈ 204 µM) in experiment [4]; 64 µg/mL (≈ 102 µM) in experiment [5]; 8 µg/mL (≈ 12.8 µM) in experiment [6]. In addition, the minimum inhibitory concentration (MIC) amounted to 64 µg/mL (≈ 102 µM) in [7]; 16 µg/mL (≈ 25.5 µM) in experiment [8]; 16 µg/mL (≈ 25.5 µM) in [9]; 64 µg/mL (≈ 102 µM) in experiment [10]; 16 µg/mL (≈ 25.5 µM) in experiment [11]; 16 µg/mL (≈ 25.5 µM) in [12]. For the same molecule, the minimal inhibitory concentration (MIC) in [13] was 64 µg/mL (≈ 102 µM); in experiment [14], 16 µg/mL (≈ 25.5 µM); in experiment [15], 64 µg/mL (≈ 102 µM).

With `CCCCCCCCCCCCCCCC(=O)N[C@@H](CCCCN)C(=O)N[C@@H](C)C(=O)N[C@H](C)C(=O)N[C@@H](CCCCN)C(=O)O` (Palmitoyl-KA[dA]K-OH), the MIC in experiment [1] is 4 µg/mL (≈ 6.11 µM); in experiment [2] it was 16 µg/mL (≈ 24.4 µM); in experiment [3], 128 µg/mL (≈ 195 µM); in experiment [4], 128 µg/mL (≈ 195 µM); in experiment [5], 32 µg/mL (≈ 48.9 µM); in [6] it was 8 µg/mL (≈ 12.2 µM). Further, the MIC in experiment [7] was found to be 64 µg/mL (≈ 97.7 µM); in experiment [8], 8 µg/mL (≈ 12.2 µM); in experiment [9] it was 32 µg/mL (≈ 48.9 µM); in experiment [10], 128 µg/mL (≈ 195 µM); in [11], 8 µg/mL (≈ 12.2 µM); in experiment [12], 32 µg/mL (≈ 48.9 µM). For the same molecule, the figures for the MIC in experiment [13], in experiment [14] and in experiment [15] were 128 µg/mL (≈ 195 µM), 32 µg/mL (≈ 48.9 µM) and 64 µg/mL (≈ 97.7 µM), respectively.

With `CCCCCCCCCCCCCCCC(=O)N[C@@H](CCCCN)C(=O)N[C@@H](CCCCN)C(=O)N[C@@H](CCCCN)C(=O)N[C@@H](CCCCN)C(=O)O` (Palmitoyl-KKKK-OH), the MIC in experiment [1] is 4 µg/mL (≈ 5.2 µM); in [2], 16 µg/mL (≈ 20.8 µM); in [3] it was 256 µg/mL (≈ 333 µM); in experiment [4], more than 64 µg/mL; in experiment [5] it was 16 µg/mL (≈ 20.8 µM); in experiment [6], 8 µg/mL (≈ 10.4 µM). The minimal inhibitory concentration (MIC) amounted to 64 µg/mL (≈ 83.2 µM) in [7]; 32 µg/mL (≈ 41.6 µM) in experiment [8]; 16 µg/mL (≈ 20.8 µM) in experiment [9]; 256 µg/mL (≈ 333 µM) in experiment [10]; 16 µg/mL (≈ 20.8 µM) in experiment [11]; 32 µg/mL (≈ 41.6 µM) in experiment [12]. The values for the minimum inhibitory concentration (MIC) in experiment [13], in experiment [14] and in experiment [15] were 256 µg/mL (≈ 333 µM), 16 µg/mL (≈ 20.8 µM) and 256 µg/mL (≈ 333 µM), respectively.
